Source: US9439438B2 (priority 2011, dated 2016)

Test system: mice
Settings: mouse, in vivo

[Cl][Mn][Cl] [Mn, MnCl2]
resistance to a lethal STx challenge: completely resistant
